According to patent publication US4335213A (priority 1979, dated 1982):
Where two headings read alike, the source gives them in different places.

How the values were obtained:
galactose oxidase [1] = format: biochemical, Gibberella fujikuroi Y-530929; settings: 25° C., pH 7.0
galactose oxidase [2] = assay: Substrate specificity of galactose oxidase (quinoneimine colorimetric assay)

Row | Compound | Inhibition rate (galactose oxidase [1]) | action of the enzyme on the substrate (galactose oxidase [2]) | other results
1 | O=[N+]([O-])[O-].[Ag+] [AgNO3] | 100% |  | 
2 | O=C(O)CN(CCN(CC(=O)O)CC(=O)O)CC(=O)O [EDTA, ethylenediaminetetraacetic acid] |  |  | Inhibition rate (galactose oxidase [1]; inhibitor 10^-3 M): 52%
3 | NO [NH2 OH] | 100% |  | 
4 | [N-]=[N+]=[N-].[Na+] [NaN3] | 94% |  | 
5 | O=C(O)c1cc[c]([Hg][Cl])cc1 [PCMB, parachloromercurybenzoate] | 57% |  | 
6 | O=C(CO)CO [dihydroxyacetone] |  | acts on | 
7 | OC[C@H]1O[C@H](OC[C@H]2OC(O)[C@H](O)[C@@H](O)[C@@H]2O)[C@H](O)[C@@H](O)[C@H]1O (stereo partly drawn) [melibiose] |  | acts on | 
8 | c1cnc2c(c1)ccc1cccnc12 [o-phenanthroline] |  |  | Inhibition rate (galactose oxidase [1]; inhibitor 10^-3 M): 68%
9 | OC[C@H]1O[C@H](OC[C@H]2O[C@H](O[C@]3(CO)O[C@H](CO)[C@@H](O)[C@@H]3O)[C@H](O)[C@@H](O)[C@@H]2O)[C@H](O)[C@@H](O)[C@H]1O [raffinose] |  | acts on | 
